According to patent US20070218460A1, “Method of Estimating Toxicity of Drug” (TAKEDA PHARMACEUTICAL COMPANY LIMITED, priority 2003, published 2007):

What was measured:
[1] = system: HepG2 cells; test: Electron-microscopic examination of PLsis induction potential (myelin-like structure)
[2] = system: fabp1; test: Real-time quantitative PCR of PLsis marker gene expression; type: cell-based, human; conditions: HepG2 cells, 24 hr exposure, relative value, control group = 1.0, GAPDH internal standard, n=3
In short: (§1)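 Total RNA from treated cells was reverse-transcribed and target transcripts quantified by TaqMan real-time PCR (200 nM each primer and probe; 40 cycles of 95 °C 15 sec, 60 °C 1 min). Values were normalised to GAPDH and expressed as change relative to control; t-test, n=3.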

[3] = system: kiaa1001; test: as above; type: cell-based, human; conditions: HepG2 cells, 24 hr exposure, relative value, control group = 1.0, GAPDH internal standard, n=3
In short: as §1

[4] = system: hpn; test: as above; type: cell-based, human; conditions: HepG2 cells, 24 hr exposure, relative value, control group = 1.0, GAPDH internal standard, n=3
In short: as §1

[5] = system: mgc4171; test: as above; type: cell-based, human; conditions: HepG2 cells, 24 hr exposure, relative value, control group = 1.0, GAPDH internal standard, n=3
In short: as §1

[6] = system: tagln; test: as above; type: cell-based, human; conditions: HepG2 cells, 24 hr exposure, relative value, control group = 1.0, GAPDH internal standard, n=3
In short: as §1

[7] = system: serpina3; test: as above; type: cell-based, human; conditions: HepG2 cells, 24 hr exposure, relative value, control group = 1.0, GAPDH internal standard, n=3
In short: as §1

[8] = system: flj22362; test: as above; type: cell-based, human; conditions: HepG2 cells, 24 hr exposure, relative value, control group = 1.0, GAPDH internal standard, n=3
In short: as §1

[9] = system: depp; test: as above; type: cell-based, human; conditions: HepG2 cells, 24 hr exposure, relative value, control group = 1.0, GAPDH internal standard, n=3
In short: as §1

[10] = system: nr0b2; test: as above; type: cell-based, human; conditions: HepG2 cells, 24 hr exposure, relative value, control group = 1.0, GAPDH internal standard, n=3
In short: as §1

[11] = system: slc2a3; test: as above; type: cell-based, human; conditions: HepG2 cells, 24 hr exposure, relative value, control group = 1.0, GAPDH internal standard, n=3
In short: as §1

[12] = system: lss; test: as above; type: cell-based, human; conditions: HepG2 cells, 24 hr exposure, relative value, control group = 1.0, GAPDH internal standard, n=3
In short: as §1

[13] = system: asah1; test: as above; type: cell-based, human; conditions: HepG2 cells, 24 hr exposure, relative value, control group = 1.0, GAPDH internal standard, n=3
In short: as §1

[14] = system: HepG2 cells; test: Highest concentration at which cells were viable after 72 hr exposure; type: cell-based, human

frequency of appearance of myelin-like structure [1]	expression variation rate fabp1 [2]	expression variation rate kiaa1001 [3]	expression variation rate hpn [4]	expression variation rate mgc4171 [5]	expression variation rate tagln [6]	expression variation rate serpina3 [7]	expression variation rate flj22362 [8]	expression variation rate depp [9]	expression variation rate nr0b2 [10]	expression variation rate slc2a3 [11]	expression variation rate lss [12]	expression variation rate asah1 [13]	SMILES	addition concentration (highest concentration at which cells survived after 72 hr of culture) [14] [µmol/L]
+	5.07	5.79	2.85	1.32	0.46	2.46	1.57	2.02	0.77	0.38	2.03	1.36	CSc1ccc2c(c1)N(CCC1CCCCN1C)c1ccccc1S2 (stereo not shown) [thioridazine]	8.3
+	1.42	2.24	1.74	1.12	0.59	1.95	1.71	2.67	1.33	0.70	1.05	2.91	CN(C)C/C=C(/c1ccc(Br)cc1)c1cccnc1 [zimelidine]	25
